Like-named read-outs stand apart in the source and are kept apart here.
Experiments:
[1] = tested on: dopamine (symptoms elicited with the dopamine agonist apomorphine); test: combined apomorphine (APO), tryptamine (TRY) and norepinephrine (NOR) test in rats: apomorphine (APO); format: in vivo; settings: Rattus norvegicus, read-out: APO ED50
[2] = tested on: serotonin (central symptoms, convulsions, elicited with serotonin or tryptamine); test: combined APO, TRY, NOR test in rats: tryptamine (TRY) convulsions; format: in vivo; settings: Rattus norvegicus, read-out: TRY convulsions ED50
[3] = tested on: serotonin (peripheral symptoms, hyperaemia, elicited with serotonin or tryptamine); test: combined APO, TRY, NOR test in rats: tryptamine (TRY) hyperaemia; format: in vivo; settings: Rattus norvegicus
[4] = tested on: norepinephrine (death upon administration of the α2 -agonist norepinephrine); test: animal or person; format: in vivo, rats; settings: Rattus norvegicus, read-out: NOR ED50
[5] = combined test in rats, apomorphine
[6] = combined test in rats, tryptamine, central (convulsions)

SMILES: COC1CCCn2c1nc(C)c(CCN1CCC(c3noc4cc(F)ccc34)CC1)c2=O (racemic) [Compound 7, (±)-3-[2-[4-(6-fluoro-1,2-benzisoxazol-3-yl)-1-piperidinyl]ethyl]-6,7,8,9-tetrahydro-9-methoxy-2-methyl-4H-pyrido[1,2-a]pyrimidin-4-one]
- ED50 [1, 5]: 0.02 mg/kg
- ED50 [2, 6]: 0.02 mg/kg
- ED50 [3]: 0.00125 mg/kg

SMILES: COc1cccn2c(=O)c(CCN3CCC(c4noc5cc(F)ccc45)CC3)c(C)nc12 [Compound 1, 3-[2-[4-(6-fluoro-1,2-benzisoxazol-3-yl)-1-piperidinyl]ethyl]-9-methoxy-2-methyl-4H-pyrido[1,2-a]pyrimidin-4-one]
- ED50 [1, 5]: 0.31 mg/kg
- ED50 [2, 6]: 0.16 mg/kg
- ED50 [3]: 0.0025 mg/kg

SMILES: CCOCOc1cccn2c(=O)c(CCN3CCC(c4noc5cc(F)ccc45)CC3)c(C)nc12 [Compound 2, 9-(ethoxymethoxy)-3-[2-[4-(6-fluoro-1,2-benzisoxazol-3-yl)-1-piperidinyl]ethyl]-2-methyl-4H-pyrido[1,2-a]pyrimidin-4-one]
- ED50 [1]: 1.25 mg/kg
- ED50 [2]: 1.25 mg/kg
- ED50 [3]: 0.01 mg/kg
- ED50 [4]: 1.25 mg/kg

SMILES: CCCCCCCCCCCCOc1cccn2c(=O)c(CCN3CCC(c4noc5cc(F)ccc45)CC3)c(C)nc12 [Compound 3]
- ED50 [1, 5]: > 10 mg/kg
- ED50 [2, 6]: > 10 mg/kg
- ED50 [3]: 1.25 mg/kg

SMILES: C=CCOc1cccn2c(=O)c(CCN3CCC(c4noc5cc(F)ccc45)CC3)c(C)nc12 [Compound 4, 3-[2-[4-(6-fluoro-1,2-benzisoxazol-3yl)-1-piperidinyl]ethyl]-2-methyl-9-(2-propenyloxy)-4H-pyrido[1,2-a]pyrimidin-4-one]
- ED50 [1, 5]: 0.31 mg/kg
- ED50 [2, 6]: 0.31 mg/kg
- ED50 [3]: 0.005 mg/kg
- ED50 [4]: 0.16 mg/kg

SMILES: Cc1nc2c(OCCCC#N)cccn2c(=O)c1CCN1CCC(c2noc3cc(F)ccc23)CC1 [Compound 5]
- ED50 [1]: 1.25 mg/kg
- ED50 [2]: 1.25 mg/kg
- ED50 [3]: 0.005 mg/kg
- ED50 [4]: 1.25 mg/kg

SMILES: C#CCOc1cccn2c(=O)c(CCN3CCC(c4noc5cc(F)ccc45)CC3)c(C)nc12 [Compound 6, 3-[2-[4-(6-fluoro-1,2-benzisoxazol-3-yl)-1-piperidinyl]ethyl]-2-methyl-9-(2-propynyloxy)-4H-pyrido[1,2-a]pyrimidin-4-one]
- ED50 [1, 5]: < 0.63 mg/kg
- ED50 [2, 6]: < 0.63 mg/kg
- ED50 [4]: < 0.63 mg/kg

SMILES: CCOCOC1CCCn2c1nc(C)c(CCN1CCC(c3noc4cc(F)ccc34)CC1)c2=O (stereo not drawn) [Compound 8]
- ED50 [1, 5]: 0.31 mg/kg
- ED50 [2, 6]: 0.16 mg/kg
- ED50 [3]: 0.00125 mg/kg

SMILES: CCCCCCCCCCCCOC1CCCn2c1nc(C)c(CCN1CCC(c3noc4cc(F)ccc34)CC1)c2=O (stereo not drawn) [Compound 9]
- ED50 [1, 5]: 10 mg/kg
- ED50 [2, 6]: 1.25 mg/kg
- ED50 [3]: 0.01 mg/kg
- ED50 [4]: 2.5 mg/kg

SMILES: CCCOC1CCCn2c1nc(C)c(CCN1CCC(c3noc4cc(F)ccc34)CC1)c2=O (stereo not drawn) [Compound 10, 3-[2-[4-(6-fluoro-1,2-benzisoxazol-3-yl)-1-piperidinyl]ethyl]-6,7,8,9-tetrahydro-2-methyl-9-propoxy-4H-pyrido[1,2-a]pyrimidin-4-one]
- ED50 [1, 5]: 0.08 mg/kg
- ED50 [2, 6]: 0.08 mg/kg
- ED50 [3]: 0.002 mg/kg
- ED50 [4]: 0.16 mg/kg

SMILES: COCCOC1CCCn2c1nc(C)c(CCN1CCC(c3noc4cc(F)ccc34)CC1)c2=O (stereo not drawn) [Compound 11]
- ED50 [1, 5]: 0.31 mg/kg
- ED50 [2, 6]: 0.63 mg/kg
- ED50 [3]: 0.00125 mg/kg
- ED50 [4]: 1.25 mg/kg

Source: patent publication US5688799A, “9-Hydroxy-pyrido[1,2-a]pyrimidin-4-one ether derivatives” (Janssen Pharmaceutica N.V., priority 1993, dated 1997)
